Values quoted from earlier work as cited in patent US20130220225A1, “BAITING METHOD AND COMPOSITION” (priority 2008, published 2013).
Where two headings read alike, the source gives them in different places.

Key:
[1] = test system: Stoats (Mustela erminea); conditions: Oral
[2] = test system: Tammar wallaby (Macropus eugenii); conditions: Oral
[3] = test system: Rat (male) (Rattus norvegicus); conditions: Oral
[4] = test system: Mouse (Mus domesticus)
[5] = test system: Brushtail Possum (Trichosaurus vulpecula); conditions: Oral
[6] = test system: Raccoon (Procyon lotor); conditions: Oral
[7] = test system: Blackbird (red-wing) (Agelaius phoenicus); conditions: Oral
[8] = test system: Cat (Fellis libyca domestica); conditions: Oral
[9] = test system: Magpie (black-billed) (Pica pica); conditions: Oral
[10] = test system: Bobcat (Lynx rufus); conditions: Oral
[11] = test system: Coyote (Canis latrans); conditions: Oral
[12] = test system: Starling (Sturnus vulgaris); conditions: Oral
[13] = test system: Skunk (Mephitis mephitis); conditions: Oral
[14] = test system: Fox (kit) (Vulpes velox); conditions: Oral
[15] = test system: Crow (Corvus brachyrhynchos); conditions: Oral
[16] = test system: Badger (Nth Am.) (Taxidea taxus); conditions: Oral
[17] = test system: Guinea pig (female) (Cavellio porcinus); conditions: Oral
[18] = test system: Quail (Coturnix coturnix); conditions: Oral
[19] = test system: Eagle (Aquila chrysaetos); conditions: Oral
[20] = test system: Ferret (Mustela putoris furo); conditions: Oral
[21] = test system: Mallard (duck) (Anas platyrhrynchos); conditions: Oral

CCC(=O)c1ccc(N)cc1 [p-aminopropiophenone]
LD50 [1]: 9.3 mg/kg | LD50 [2]: 89 mg/kg | LD50 [3]: 177 mg/kg | LD50 ([4]; Mouse (female), I.V.): 200 mg/kg | LD50 ([4]; Mouse (female), Oral): >5,000 mg kg^−1 | LD50 ([4]; Mouse (male), I.V.): 145 mg/kg | LD50 ([4]; Mouse (sex not given), Oral): 233 mg/kg | LD50 [5]: 500 mg/kg | LD50 [6]: 142 mg/kg | LD50 [7]: 133 mg/kg | LD50 [8]: 5.6 mg/kg | LD50 [9]: 178 mg/kg | LD50 [10]: 10 mg/kg | LD50 [11]: 5.6 mg/kg | LD50 [12]: >316 mg/kg | LD50 [13]: >400 mg/kg | LD50 [14]: 14.1 mg/kg | LD50 [15]: >178 mg/kg | LD50 [16]: 100 mg/kg | LD50 [17]: 1020 mg/kg | LD50 [18]: >316 mg/kg | LD50 [19]: >50 mg/kg | LD50 [20]: 29 mg/kg | LD50 [21]: 38 mg/kg
